Experimental data from US4716222A, “Substrates for hydrolases” (Hoechst Aktiengesellschaft, priority 1984, dated 1987).

Assay: Test paper moistened with a blood plasma solution
Settings: paper impregnated with ethanol solution containing 0.01% substrate
Excerpt: The crude product was purified on a chromatography column (stationary phase: silica gel; mobile phase: CHCl3 +glacial acetic acid 19:1).

## Cc1ccc(S(=O)(=O)NCC(=O)N2CCC[C@H]2C(=O)N[C@@H](CCCNC(=N)N)C(=O)Oc2ccc3c(c2)oc2cc(=O)ccc-2[n+]3[O-])cc1 [Tos-Gly-Pro-Arg-resazurin]
  coloration of test paper: immediate blue-violet coloration
